Measurements reported in patent US11951134B2, “Cationic platelet lysate compositions and related methods” (North Carolina State University, priority 2019, dated 2024).

Tests used:
[1] = system: S. aureus (ATCC 25923) infected tarsocrural joint; experiment: Equine S. aureus infectious arthritis model (BIO-PLY 5 mL + 500 mg amikacin vs 500 mg amikacin + saline, intra-articular daily for 7 days); assay type: in vivo, horse; settings: end-term (day 24; legend b39: day 23-24); BIO-PLY + amikacin group vs amikacin alone group, n=6 each
Source text: Subsequently, the in vitro findings were translated into an in vivo equine model of S. aureus-induced infectious arthritis. Using this model, it was hypothesized that the combination of BIO-PLY and amikacin will decrease bacterial burden and improve outcome parameters in an equine S. aureus infectious arthritis model compared to horses treated with amikacin alone. A highly concentrated (>50 fold), pooled PRP-L was generated from 8 healthy donor horses and processed to have the anionic fraction, including fibrinogen, removed and passed through a 10 kDa molecular weight cutoff filter to remove proteins […] termed BIO-PLY as stated above (IACUC protocol #16-189 of NC State University, Raleigh, N.C.). […]
All horses received systemic antimicrobials (potassium penicillin and gentamicin) for 10 days post-infection as well as a tapering course of phenylbutazone for the duration of the study. Physical examinations were performed daily and pain scores based on lameness, hock swelling, distal limb swelling, pain to palpation, and presence of heat were calculated at days 0-7, 14 and 21. […] Synovial fluid was collected on day 0-7 and assessed for total protein (TP), total nucleated cell count (TNCC), cellular differential, and bacterial load determination, as well as biomarker analysis (EMD Millipore MILLIPLEX MAP Equine Cytokine/Chemokine Magnetic Bead Panel). […]

[2] = system: all isolates used in this study; experiment: Antimicrobial susceptibility by microbroth dilution; assay type: cell-based
Source text: The laboratory strain of Staphylococcus aureus, ATCC 25923, was used to initially screen the different PRP formulations. Significant findings were then validated using clinical isolates derived from cases of equine septic arthritis collected by the University of Pennsylvania School of Veterinary Medicine New Bolton Center Clinical Microbiology Laboratory and processed in accordance with their Standard Operating Procedures. In vitro antimicrobial susceptibility testing and microbial identification was performed using the ARIS Sensititre™ system, using the equine (EQUIN1F) antimicrobial susceptibility panel for veterinary organisms. Bacteria were saved in frozen stocks on glycerol at −80° C. Blood agar plates were streaked from frozen stocks and used for in vitro experiments for a maximum of 1 month. […]
Synovial fluid pooled from three horses (n=3) was infected at 1×10^5 CFU/mL for Staphylococcus aureus (ATCC 25923) or for each clinical isolate (Staphylococcus aureus, Streptococcus zooepidemicus, Pseudomonas aeruginosa, and Escherichia coli) and incubated for 2 hours at 37° C. in a microaerophilic chamber on a shaker at 120 rpm to allow for […] formation. […] Bacterial load was measured using serial dilutions and plate counting of colony forming units. […]

## NCC[C@H](O)C(=O)N[C@@H]1C[C@H](N)[C@@H](O[C@H]2O[C@H](CN)[C@@H](O)[C@H](O)[C@H]2O)[C@H](O)[C@H]1O[C@H]1O[C@H](CO)[C@@H](O)[C@H](N)[C@H]1O [amikacin]
[1]
  bacteria within the synovial tissue at end-term: 80.95±58.77 CFU/g tissue
[2]
  susceptibility of isolates to amikacin: susceptible
